In article PMC4586589 (The Journal of General Physiology, 2015):

Target: T1, ELIC (Erwinia chrysanthemi ligand-gated ion channel) (Dickeya chrysanthemi, UniProt P0C7B7)
T1 sequence (P0C7B7 1-321): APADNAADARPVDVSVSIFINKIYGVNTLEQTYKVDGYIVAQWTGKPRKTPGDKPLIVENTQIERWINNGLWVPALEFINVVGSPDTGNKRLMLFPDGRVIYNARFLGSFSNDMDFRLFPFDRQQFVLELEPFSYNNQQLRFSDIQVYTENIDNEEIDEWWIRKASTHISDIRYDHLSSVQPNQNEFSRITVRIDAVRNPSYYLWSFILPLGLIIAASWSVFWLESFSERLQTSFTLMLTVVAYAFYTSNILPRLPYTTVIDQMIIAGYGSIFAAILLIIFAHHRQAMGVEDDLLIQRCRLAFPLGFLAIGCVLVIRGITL
Assay: ITC
Format: cell-based

EC50: 10.02 ± 0.05 mM
SMILES: NCCCO [3-AP, 3-amino propanol]
